According to a melting point compilation (Tetko et al.; mined from patent text by program, amines drawn as free bases though some values may be those of a salt):

SMILES | melting point
CC(C)(O)C(=O)Nc1c(C(=O)c2ccccc2)[nH]c2cc(Cl)ccc12 | 234 to 238 °C
CC1(C)Nc2cc(F)c(F)cc2-n2cccc21 | 123 to 125 °C
CCCCOC(=O)c1ccccc1-c1ccc(Cn2c(CCCC)nc(C(C)(C)O)c2C(=O)O)cc1 | 158 to 159 °C
CCOC1CCC(=O)N1S(=O)(=O)c1ccc(N)cc1 (stereo not drawn) | 185 to 186 °C
O=S(=O)(c1ccc(Cl)cc1)N1CCCC1c1cccc(Cl)c1 (racemic) | 99 °C
CC(C)(C)c1ccc(-c2ccc3c(-c4ccc(C(C)(C)C)cc4)cc4c5cc(-c6ccc(C(C)(C)C)cc6)ccc5c(-c5ccc(C(C)(C)C)cc5)cc4c3c2)cc1 | 376 °C
O=C1Nc2ccc(Cl)nc2Oc2ccccc21 | 311 to 313 °C
COc1nc(NC(=O)NS(=O)(=O)c2ccccc2OC(F)F)nc(NC(C)(C)C)n1 | 213 to 214 °C
CCOC(=O)c1cc(C)c2c(c1)CC(=O)N2 | 238 to 241 °C
COc1ccc(COC2CCCn3c2c(-c2ccccc2)c2cc(C)c(C)cc2c3=O)cc1 (stereo not drawn) | 145 to 146 °C
COc1ccc(C(=O)Nc2ccc(F)c(F)c2)cc1NCc1cccnc1 | 148 to 149 °C
Fc1cccc(SCc2nnc(-c3ccc4c(c3)CCO4)o2)c1 | 55 to 56 °C
CC(C)NP(N)(=O)NC(=O)c1ccc(F)cc1 (stereo not drawn) | 197 to 199 °C
COc1cc(OC)c(NC(=O)[C@H]2[C@H](c3ccccc3)C2(C)C)cc1Cl (relative stereo) | 160 to 162 °C
CN1CCC(Cc2ccccc2)(Oc2ccc([N+](=O)[O-])cc2)CC1 | 116 to 117 °C
Cc1c(-c2ccccc2)oc2c(CSCCCl)cccc2c1=O | 82 to 83 °C
CCN(CC)C(=O)c1cc(S(=O)(=O)Cc2ccccc2)c(N2CCC(c3ccccc3)CC2)cc1N(CC)CCN(C)C | 117 to 118 °C
CN1CCC(C2(O)CC(c3ccc(F)cc3)c3ccc(F)cc32)CC1 (stereo not drawn) | 146 to 147 °C
COC(CNC(=O)N(N=Cc1ccccc1)c1cc(Cl)c(C(C#N)c2ccc(Cl)cc2)c(Cl)c1)OC (stereo not drawn) | 190 to 191 °C
O=C(O)Cc1cc2c3ccccc3[nH]c(=O)n2n1 | 253 to 254 °C
CC1=C(C(=O)OC(C)(C)C)C(c2ccc(Br)cc2)C(C(=O)OC(C)(C)C)=C(C)N1 | 206 to 207 °C
FC(F)(F)Oc1ccc(C2NCCc3ccccc32)cc1 (stereo not drawn) | 56.6 to 57.1 °C
Cc1cc(-c2cc(C(F)F)n3ncc(C(=O)Nc4cccc(S(C)(=O)=O)c4)c3n2)ccc1C(F)(F)F | 261 °C
CN1CCC[C@H]1Cc1cc2cccnc2[nH]1 | 130 to 131 °C
CC1(C)C2CC(=O)C(CCC(=O)O)C1C2 (stereo not drawn) | 45 °C

SMILES | melting point
CCOP(=O)(OCC)c1ccc(/C=C/c2ccc3c(c2)C(C)(C)CCC3(C)C)cc1 | 83 to 84 °C
CCCCN(C(C)=O)C1NC(=O)N(c2cccc(C(F)(F)F)c2)C(=O)N1 | 146 to 148 °C
ClCc1ccc(OCc2ccc3ccccc3n2)nc1 | 118 to 119 °C
O=C(O)Cc1cccc2c(-c3ccc(Br)cc3)nccc12 | 230 to 232 °C
O=C1c2cccc(O)c2CCC1CN1CCC(O)(c2ccccc2)CC1 (stereo not drawn) | 187 to 189 °C
COC(=O)c1c(O)c2cc(Cl)ccc2n1-c1ccccc1 | 170 to 173 °C
CCOC(=O)/C(C#N)=C(\N)C(CC)CC | 87 °C
O=[N+]([O-])c1ccc(C#Cc2ccccc2)c(-c2cc([N+](=O)[O-])ccc2C#Cc2ccccc2)c1 | 216 to 218 °C
CC(=O)C1CCC2C3CCC4CC(O)C(N5CC(C)(C)OC(C)(C)C5)CC4(C)C3C(=O)CC12C (stereo not drawn) | 212 to 215 °C
Cc1c(NC(=O)c2ccc(-c3ccc(F)cc3)cc2)ccc2cc(CN3CCC(CC(=O)N(C)C)CC3)cnc12 | 200 to 201 °C
CCOC(=O)C(=O)Nc1cc2[nH]c(=O)c(=O)n(C3CCCCC3)c2cc1[N+](=O)[O-] | 260 °C
CCn1c(=O)oc2cc(N3C[C@H](C(N)=O)OC3=O)ccc21 | 234 to 236 °C
NC(=O)c1cccc(-c2ccc(F)c3cc(Cc4cccc(C(F)(F)F)c4)sc23)c1 | 139 to 140 °C
NC(=O)c1nc2cnc3ccccc3c2[nH]1 | 326 to 328 °C
COC(=O)CCCc1cc2cc(C(F)(F)F)ccc2n1S(=O)(=O)c1cccc(C(C)C)c1 | 115 °C
CCCCCCCCCCCCCCOc1ccccc1NC(=O)c1cc(Sc2nnnn2-c2cccc(C(=O)O)c2)c2ccccc2c1O | 136 to 138 °C
CN(CCCCNC(=O)c1ccc2ccccc2c1)C1CCc2ncsc2C1 (stereo not drawn) | 122 °C
O=C(Nn1ccc2ccccc21)C1=CCCN(CCN2CCCCC2)C1 | 65 °C
Nc1cc2c(cc1[N+](=O)[O-])CCC2 | 131 to 132 °C
CC(C)=CCOC(C)C1CCC2=C3C=CC4C(C)(C)C(OC(=O)CCC(=O)O)CCC4(C)C3CCC21C (stereo not drawn) | 96 to 99 °C
COC(=O)c1ccc(C(=O)Nc2nc(-c3cccc(C)c3)c(-c3ccncn3)s2)cc1 | 339 to 341 °C
Nc1ccc2nc(CN3CCCC3)ccc2c1 | 102 to 104 °C
CC(=O)SCC(Cc1ccccc1)C(=O)Nc1cc(C(=O)O)ccc1CN1CCCC1 (stereo not drawn) | 95 to 98 °C
CCSc1cc(C(=O)O)cc(S(N)(=O)=O)c1Oc1ccccc1 | 225 to 227 °C
Nc1cc(=O)n(Cc2ccc(Cl)c(Br)c2)[nH]1 | 171 to 172 °C

SMILES | melting point
O=C1NCCN1c1ccc(S(=O)(=O)Nc2ccc(Cl)cc2)cc1 | 234 to 236 °C
CCOC(=O)C1=C(C)NC(c2cncs2)=NC1c1ccc(F)cc1Cl (stereo not drawn) | 121 to 125 °C
CC(C)(C)C(O)(COc1ccccc1)c1cccnc1 (stereo not drawn) | 89 to 90.5 °C
CC1(C)Oc2ccc(C#N)cc2[C@@H](NC(=S)Nc2ccccc2)[C@@H]1O (relative stereo) | 183 to 185 °C
CC(C)(C)OC(=O)N=C(N)N(Cc1ccc(OCCC2Oc3cc([N+](=O)[O-])ccc3N(Cc3cccc(Cl)c3)C2=O)cc1)C(=O)OC(C)(C)C (stereo not drawn) | 67.5 °C
O=C1CCCC(=O)C1C(=O)c1ccc(C(F)(F)F)c(N2CCSCC2)n1 | 106 °C
CC(C)=CCC/C(C)=C/Cn1c(CO)nc2ccccc21 | 120 to 123 °C
CCCc1c(OCCCCCCCC(=O)NCCCCc2cccnc2)ccc(C(C)=O)c1O | 48 to 51 °C
CCOC(=O)[C@H](Cc1ccc(OC)c(OC)c1)NC(=O)c1ccnc(Br)c1 | 108 to 109 °C
CCc1nn2c(-c3cccnc3)ccnc2c1C#N | 170 to 172 °C
Cc1cc(C)c(Nc2nc(C)ccc2S(=O)(=O)c2ccc(OCc3ccccc3C#N)cc2)c(C)c1 | 208 to 210 °C
COC(=O)CCc1nc(-c2ccc(O)cc2)c(-c2ccccc2)o1 | 115 to 116 °C
CCCC[C@H](NC(=O)[C@H](CC(C)C)NC(=O)c1cc(F)cc(F)c1)C(=O)CSCc1ccco1 | 125 to 126 °C
CCCCCCCCCCOc1ccc(-c2ccc(C#CCCC(C)O)cc2)cc1 (stereo not drawn) | 97 to 99 °C
COC1CC2C3CCC4=CC(=O)CCC4(C)C3(F)CCC2(C)C1(OC(C)=O)C(=O)CCl (stereo not drawn) | 241 to 244 °C
Cc1nc(O)sc1-c1cn2cccnc2n1 | > 300 °C
CC(C)(C)OC(=O)n1ccc2cc(-c3ccccc3)ccc21 | 105 to 106 °C
CCCOC(=O)c1cccc(CCN(C)CCCC(C#N)(c2ccc(OC)c(OC)c2)C(C)C)c1 (stereo not drawn) | 110 to 114 °C
O=C(Cl)c1c(Cl)c(Cl)c(C(F)(F)F)c(Cl)c1Cl | 72 to 76 °C
CN(C)NC(=O)C(C)(C)C | 120 to 122 °C
CC(=O)CCc1c(C)c(OC(C)=O)c(C)c(C)c1OC(C)=O | 85 to 87.5 °C
COc1cc2c(c(OC(C)=O)c1)C1CCC3(C)C(=O)C(O)CC3C1CC2 (stereo not drawn) | 228 to 231 °C
CC(=O)N1CCC(OC(=O)c2ccccc2)(c2nccc3ccccc23)CC1 | 186 to 189 °C
CC(=O)Oc1cc(OC(C)=O)cc(OC(C)=O)c1 | 105 to 106 °C
CCCCc1ncc(C(=O)OCC)c(NCc2ccc(-c3ccccc3-c3nnn[nH]3)cc2)n1 | 153 to 155 °C

SMILES | melting point
Cc1nc(N)sc1S(=O)(=O)NC(C)(C)CO | 146 °C
COc1cc(Cc2cnc(N)nc2N)cc2c(C)ccnc12 | 287 to 290 °C
Cc1cc(Cl)cc(Cl)c1N1CCn2c1nc1c(Cl)ccc(C(O)(C3CC3)C3CC3)c12 | 193 to 196 °C
COn1c(=S)n(C)c(=O)c2ccccc21 | 184 °C
COC1(C=CCOc2ccc3c(-c4ccc(F)cc4)c4c(cc3c2)C(=O)OC4)CCOCC1 | 144 to 148 °C
N#Cc1ccc(OCc2ccccc2)cc1OCc1ccccc1 | 100 °C
Cc1cnc2c(N)cccc2c1Cl | 112 to 114 °C
Cc1oc(=O)oc1CS[C@H](C)[C@](O)(Cn1cncn1)c1ccc(F)cc1F (racemic) | 173 to 174 °C
COc1ccc(S(=O)(=O)Nc2ccccc2NC(=O)c2ccccc2)cc1OC | 183 to 184 °C
CCC(C)C(NC(=O)C(CSC(C)=O)C(F)(F)F)C(=O)O (stereo not drawn) | 81 to 85 °C
CC(=O)Nc1ccc(Sc2ccccc2)cc1 | 142 to 144 °C
CC(C)(C)OC(=O)N[C@@H](CCl)[C@H](O)CCl | 142 to 145 °C
COc1ccc2ncnc(N3CCCc4ccccc43)c2c1 | 98 °C
CCCOc1ccc([N+](=O)[O-])c(C)c1Cl | 42 to 43 °C
CC(=O)OCC1OC(n2c(Cl)c(C#N)c3cc(Cl)c(Cl)cc32)C(O)C1O (stereo not drawn) | 103 to 104 °C
O=C(O)[C@H]1C[C@@H](O)CN1C(=O)Nc1ccc(Cl)cc1 | 132 to 134 °C
O=C(NCCCCSc1ccncc1)c1ccccc1O | 83 to 85 °C
CCOc1cc(C(C)(c2cc(OCC)c(O)c(OCC)c2)c2cc(OCC)c(O)c(OCC)c2)cc(OCC)c1O | 78 °C
COC(=O)CN(C)c1cc(-c2ccc(Cl)cc2)on1 | 141 °C
N#Cc1ccc(N(Cc2ccc(O)c(Br)c2)n2cnnc2)cc1-c1ccoc1 | 200 to 201 °C
O=C1CCOc2ccc(-c3ccccc3)cc21 | 74 to 75 °C
CC1=C(C(=O)OCC(C)C)C(c2cccc([N+](=O)[O-])c2)c2c(N)nc(N)nc2N1 (stereo not drawn) | 130 °C
CCC(CC)(NCCCn1cnc(CCNC(=O)c2ccc(C#N)cc2)c1)c1ccccc1 | 107 to 109 °C
